Laboratory results as given in patent publication US20090124622A1, “Medicament Containing a Thiazole Derivative as an Active Ingredient” (priority 2006, published 2009).

How the values were obtained:
[1] = test system: guinea pig delayed asthma model; experiment: Guinea pig delayed asthma model; type: in vivo; conditions: Cavia porcellus, oral, 1 hour before OVA inhalation, read-out: ED50 (inhibition of delayed asthma reaction, AUC4-8hr of % sRaw/TV)
Protocol: Hartley male guinea pigs were purchased from SLC, and after quarantining them for 1 week, at the week when the qualantine was finished the first sensitization was carried out by antigen exposure. By using ultrasonic nebulizer (OMRON NE-U12, condition: Vapor amount: maximum, Air: small) 2% (w/v) ovalbumin (OVA, by Sigma-Aldrich) in saline solution was vaporized, and by disposing for 10 minutes, they were first sensitized. At sensitizing, the guinea pigs were fixed on a body holder cartridge for them (by M.I.P.S.), and they were set on disposal chamber holder for 8 guinea pigs (by M.I.P.S.). Additional sensitization was carried out 7 days after the first sensitization as well. […] Breath function was measured by a general breath function measurement system (by M.I.P.S.) using Double flow plestymograph method (Penny A. Hutson et al. Am Rev Respir Dis 1988 137, 548-557). The breath function was measured before reaction induction (pre-value), 5 minutes, 1, 2, 3, 4, 5, 6, 7, and 8 hours after completion of reaction induction. By using one of parameters, sRaw/TV (specific airway resistance/once breath) as an index of improvement of respiratory function, variation rate per individual of sRaw/TV (% sRaw/TV) against pre-value between each measured times was calculated. Plotting % sRaw/TV with time, Area Under the Curve (AUC4-8hr) from 4 hours to 8 hours after reaction induction was calculated. […]

[2] = test system: mast cells derived from murine bone marrow; experiment: Cytokine (TNF-α, IL-13) release from antigen-stimulated murine bone marrow-derived mast cells; type: cell-based, mouse; conditions: DNP-HSA 3 ng/ml, 4 hours
From the text: (§1) According to almost the same method as the method by Razin et al. (J. Immunol. 132, 1479-1486 (1984)), murine bone marrow cells were differentiated into mast cells. Namely, bone marrow cells from femur of a female BALB/c mouse (purchased from Charles River Japan) were collected, and cultured in RPMI 1640 culture medium, containing 10% […] FBS prepared by Invitrogen, and 50% WEHI-3 cell culture supernatant. After culture for more than three weeks and confirming differentiation into mast cells under microscope, the cells were subjected to the following experiments.
(§2) Mast cells were suspended in the concentration of 2×10^6 cell/ml, and thereto was added 0.1 μg/ml anti-mouse DNP-Age antibody (SPE7, by Sigma-Aldrich). The cell suspension was incubated overnight in a CO2 incubator (5% CO2, 37° C.), and passively sensitized. […] After terminating the reaction by putting the plate on ice, histamine concentration of the supernatant was measured. […]
This experiment was conducted in almost the same method as the experiment on histamine release except that the final concentration of antigen (DNP-HSA) was 3 ng/ml, and reaction hours after addition of the antigen were 4 hours. The concentrations of TNF-α, and IL-13 in the supernatant were measured by using Enzyme-linked immunoassay kit (Quantikine (reg. trademark) Mouse TNF-α/TNFSF1A and IL-13 Immunoassay, by R&D systems).

[3] = test system: guinea pig rhinitis model; experiment: Nasal cavity resistance change (sRaw) in guinea pig rhinitis model; type: in vivo; conditions: oral
Protocol: Referring to the report (74th Japanese Pharmacological Society (2001), Abstract number P-258, Establishment delayed rhinitis model by a guinea pig and effect of polysulfonic acidified hyaluronic acid, Masaki Matsudo, Junichi Fuchigami et al.), the following evaluation was conducted.
A saline solution (1 ml) containing OVA (50 mg) and aluminum hydroxide gel (1 mg) (by PIERCE) was percuteneously administered to a male Hartley guinea pig (from Kyudo Co. Ltd.) on back collum to make active sensitization.
SMP-028 was orally administered for 15 days starting from sensitization once a day (5 ml/body weight (kg)). The drug was orally administered before 1 hour on the sensitized day or on the antibody-challenged day. To saline solution challenged group (saline group) and control group was orally administered 0.5% MC as well. To dexamethasone group (dex. group) was orally administered the drug before 16 hours and 2 hours of antibody challenge. […]
By using a general respiratory function analysis system (PULMOS-I, by M.I.P.S), nasal cavity resistance of guinea big under palinesthesia was measured in accordance with the method of Double flow plestymograph. Because antibody challenge region was restricted to nose part, sRaw which was analyzed by computer and outputted (specific airway resistance) was served as an index of nasal cavity resistance. Before antibody nasal challenge, 10 minutes, 2, 3, 4, 5, 6 and 7 hours after the challenge, each sRaw per animal was once measured, and average of 100 breathes was made sRaw at each measured time. From the sRaw value by using analysis soft on a general respiratory function analysis system (WinPUL13 ver. 1.21) and using the calculation formula (sRaw increased rate (%) during each measuring times=100×(sRaw−sRaw before challenge during each measuring times)/sRaw before challenge), sRaw change rate was calculated. […] AUC3-7hr was calculated by trapezoid (echelon) method. Furthermore, from IAR and LAR in medium control group and each test group, inhibiting rate (%) on each test group against medium control group was calculated.

guinea pig eosinophiles = experiment: Release of prostaglandin D2 and thromboxane B2 from PAF-induced guinea pig eosinophiles; type: cell-based; conditions: PAF C-16 10^-7M, 10 minutes
Protocol: In accordance with almost the same as the method of Sugasawa et al. (Agents and Actions 37, 233-237 (1992)), eosinophiles were separated and purified from abdominal of a male Hartley guinea pig (from SLC) and the cell concentration was adjusted to 1.25×10^7 cell/ml with modified hanks solution. The cell suspension (80 μl) were added to a 96-well culture plate (by Asahi-techno-glass Co. Ltd.), and then a test sample in DMSO solution or 2.5% DMSO solution only (10 μl) was added. After the plate was preincubated in a CO2 gas incubator for 10 minutes (5% CO2, at 37° C.), thereto was added Platelet Activating Factor (PAF C-16, by Cayman Chemical) 10 μl (final concentration of PAF C-16: 10−7M), and the mixture was further incubated in a CO2 gas incubator for 10 minutes. The concentrations of thromboxane B2 and prostaglandin in the supernatant were measured by using immunoassay kit (Thromboxane B2 EIA kit, Prostaglandin D2-MOX EIA kit, by Cayman Chemical).

[4] = test system: mast cells derived from murine bone marrow; experiment: Cys-LT release from antigen-stimulated murine bone marrow-derived mast cells; type: cell-based, mouse; conditions: DNP-HSA 10 ng/ml; IgE-sensitized mast cells
From the text: as §1, §2
This experiment was conducted in the almost same method as the experiment of histamine release except that the final concentration of antigen (DNP-HSA) was 10 ng/ml. The concentration of […] in supernatant was measured by using Cysteinyl-Leukotriene EIA Kit (by Cayman Chemical).

[5] = test system: guinea pig rhinitis model; experiment: Inflammatory mediators (TNF, LTE4) in nasal cavity lavage fluid of guinea pig rhinitis model; type: in vivo; conditions: 8 hours after antigen nasal challenge
Protocol: Eight hours after antigen nasal challenge, by intraperitoneally administering pentobarbital sodium (Nembutal (reg. trade name), by Dainippon Sumitomo Pharma) 30 mg/body weight (kg) to anesthetize, the animal was fixed at the back. Opening bronchial, a cannula was inserted into a lung site to continue breath, and fixed by knotting. After stopping the channel of oral cavity and nasal cavity, from a part of opened bronchia to a side of nasal cavity a cannula was inserted, and knotted, and to the cannula was connected syringe pump. A saline solution was refluxed in the nasal cavity at flow speed (1 ml/minute) for 10 minutes, and the refluxed solution was recovered to get nasal cavity lavage fluid, NCLF). NCLF was centrifuged (1710.5×g (3000 rpm), 4° C., 10 minutes), and the supernatant was freezed at −80° C., and subjected to experiment of Example 5.
The supernatant of NCLF obtained in Example 4 was freezed at −80° C. and preserved. After thawing the sample, the concentration of LTE4 was measured by immuno assay kit (Leukotriene E4 EIA kit, by Cayman Chemical). The concentration of TNF was measured by bioassay method using L929 cells (from Dainippon Sumitomo Pharma) (David H., et al., J. Allergy Clin. Immunol. 89, 958-967 (1992)). Using recombinant human TNF-α (by PeproTech) as a standard, the result was shown by potency of human TNF-α cytotoxicity.

[6] = test system: mast cells derived from murine bone marrow; experiment: Histamine release from antigen-stimulated murine bone marrow-derived mast cells; type: cell-based, mouse; conditions: DNP-HSA 100 ng/ml, 20 minutes; IgE-sensitized mast cells
From the text: as §1
Mast cells were suspended in the concentration of 2×10^6 cell/ml, and thereto was added 0.1 μg/ml anti-mouse DNP-Age antibody (SPE7, by Sigma-Aldrich). The cell suspension was incubated overnight in a CO2 incubator (5% CO2, 37° C.), and passively sensitized. […] The cell suspension (80 μl) were added to a 96-well culture plate (by Asahi-techno-glass Co. Ltd.), and then a test sample in DMSO solution or 2.5% DMSO solution only (10 μl) was added. After the plate was reinsulated in a CO2 incubator for 10 minutes, to stimulate, 10 μl of 1 μg/ml of antibody (DNP-HSA, by Sigma-Aldrich, final concentration of antigen 100 ng/ml) was added to each well. […] After terminating the reaction by putting the plate on ice, histamine concentration of the supernatant was measured. […]

[7] = once a day for 15 days, OVA nasal challenge

## CNC(=O)NCCn1c(-c2ccc(N3CCOCC3)cc2)csc1=Nc1ccc(F)cc1 [Compound 2, reference compound]
[1]
  ED50: 0.69 mg/kg

## CNC(=O)NCCn1c(-c2ccc(N3CCOCC3)cc2)csc1=Nc1cccc(F)c1 [SMP-028, N-{2-[2-[(3-Fluorophenyl)imino]-4-(4-morpholin-4-ylphenyl)-1,3-thiazol-3(2H)-yl]ethyl}-N′-methylurea]
[1]
  ED50: 0.44 mg/kg
[2]
  release of IL-13 from mast cells: inhibited
  release of TNF-α from mast cells: inhibited
[3]; 30 mg/kg
  efficacy on immediate and delayed nasal congestion reaction compared with dexamethasone: efficacy comparative to dexamethasone
[3]; [7]
  delayed nasal congestion reaction (LAR, AUC3-7hr of sRaw increased rate): dose-dependently inhibited
  immediate nasal congestion reaction (IAR, sRaw increased rate 10 minutes after challenge): dose-dependently inhibited
Guinea pig eosinophiles
  release of prostaglandin D2 from eosinophiles: concentration-dependently inhibited
  release of thromboxane B2 from eosinophiles: concentration-dependently inhibited
[4]
  release of Cys-LT from mast cells: inhibited
[5]; EIA
  production of LTE4 in nasal cavity (NCLF): showed a tendency and activity of inhibition
[5]; L929 bioassay
  production of TNF in nasal cavity (NCLF): showed a tendency and activity of inhibition
[6]
  release of histamine from mast cells: inhibited
